Here are results for 1 compound from US12616203B2, “Use of 3-isoxazolidinones compounds as selective herbicides” (FMC Corporation, priority 2014, dated 2026).

The subject of series [1] is weeds. The experiment in a line: Ex24 PRE greenhouse. As to conditions: weed and rate in the words. It is filed as in vivo. An excerpt: The tested weeds include Giant foxtail (Setaria faberi, SETFA), green foxtail (Setaria virdis, SETVI), yellow foxtail (Setaria pumila, SETLU), black nightshade (Solanum nigrum, SOLNI), kochia (Kochia scoparia, KCHSC), redroot pigweed (Amaranthus retroflexus, AMARE), common ragweed (Ambrosia artemisiifolia, AMBEL), barnyardgrass (Echinochloa crus-galli, ECHCG), large crabgrass (Digitaria sanguinalis, DIGSA).
To determine PRE efficacy, five levels of 2,4 DC-21 (36.7% CS) 0, 125, 170, 210, or 250 g ai/ha and five levels of pyroxasulfone (KIH485-85WG) 0, 50, 65, 80, or 95 g ai/ha were applied either alone or as tank-mix. Additional treatments consisted of premix of pyroxasulfone plus fluthiacet-methyl (Anthem™ 23.3%) at 169.9 g ai/ha, S-metolachlor (Dual II Magnum®, 82.4%) at 1388 g, and tank-mix of mesotrione (Callisto®, 40%) at 123 g plus S-metolachlor at 1252 g. […] Treatments were applied before the emergence of black nightshade, giant foxtail, green foxtail, yellow foxtail, large crabgrass, kochia, redroot pigweed, common ragweed, and bamyardgrass. […] Flats were watered and fertilized routinely after treatment application. Each treatment was replicated three times.

Series [2] relates to Blackgrass. The series can be described thus: Ex13 PRE 2,4-DC + diflufenican, % control 28 DAT, Colby. It is filed as in vivo, Alopecurus myosuroides. An excerpt: (§1) Pyroxasulfone (KIH-485, 85%) at 74.3 g ai/ha, pendimethalin (Prowl 3.3EC, 37.4%) at 1200 g ai/ha, or a premix of chlorsulfuron plus metsulfuron-methyl (Report Extra, 75%) at 15.8 g ai/ha were applied as commercial standards. […] Treatments were replicated 3 times and flats were watered after planting before the treatment and lightly watered after treatment application. Thereafter flats were watered and fertilized routinely.

Series [3] relates to Barley. It is filed as in vivo. As to conditions: 14 DAT. The protocol: (§2) Treatments were applied to wheat and barley crops.
(§3) Nonionic surfactant was added at 0.5% v/v in all treatments. Treatments were applied to wheat (5.5″), barley (5″), wild oat (5.5″), common chickweed (2″), wild buckwheat (3″), and common lambsquarters (2″). All plant species were direct seeded into 3″ plastic pots using metro-mix as growth media and pots were watered well before application and watered 24 h after application. Plants were watered and fertilized routinely after treatment application. Each treatment was replicated four times.

In series [4] the test system is wheat. It is filed as in vivo. As to conditions: 14 DAT, POST, 2,4-DC 210 g ai/ha. The protocol: as §2, §3
For series [5], the system named is weeds. The experiment in a line: Ex13 PRE greenhouse. The format is in vivo. The following applies: 28 DAT, weed and rate in the words.
Source text: as §1

The subject of series [6] is Littleseed canarygrass. The experiment in a line: Ex34 PRE 2,4-DC + napropamide, % control, Colby. The format is in vivo, Phalaris minor. As to conditions: 28 DAT. From the text:
Thereafter flats were watered and fertilized routinely.

Like-named read-outs stand apart in the source and are kept apart here.

Turning to `CC1(C)CON(Cc2ccc(Cl)cc2Cl)C1=O` [2,4-DC, 2-(2,4-dichlorophenyl)methyl-4,4-dimethyl-3-isoxazolidinone], the “weed control in words” value in series [1] is “alone controlled kochia at 210 g ai/ha, barnyardgrass and large crabgrass at 125 g, giant foxtail and green foxtail at 170 g”; in series [5], “alone at all rates did not control most of the species”. For the same compound, the X was found to be 23% in series [2] (2,4-DC alone 125 g ai/ha); 53% in series [2] (2,4-DC alone 170 g ai/ha); 66% in series [2] (2,4-DC alone 210 g ai/ha); 68% in series [2] (2,4-DC alone 250 g ai/ha); 8% in series [6] (2,4-DC alone 31 g ai/ha); 12% in series [6] (2,4-DC alone 63 g ai/ha). Also, the X in series [6] (2,4-DC alone 125 g ai/ha) was found to be 18%; in series [6] (2,4-DC alone 250 g ai/ha), 27%; in series [6] (2,4-DC alone 375 g ai/ha) it was 53%. Further, the “% crop injury for 2,4-DC alone” value in series [3] (POST, 2,4-DC 125 g ai/ha) came out at 17%; in series [3] (POST, 2,4-DC 170 g ai/ha), 17%; in series [3] (POST, 2,4-DC 210 g ai/ha), 18%; in series [3] (POST, 2,4-DC 250 g ai/ha), 23%; in series [4] it was 31%.
